Values after ≈ are worked out from the molar mass of the structure shown. Active and inactive are the calls of the source. No cut-off for these calls is given here.
Assays:
Format in all cases: functional
Staphylococcus aureus [1] = test: Antibacterial activity against methicillin-sensitive Staphylococcus aureus after 18 to 20 hrs by CLSI-protocol based broth microdilution method
Staphylococcus aureus [2] = test: Antibacterial activity against methicillin-resistant Staphylococcus aureus after 18 to 20 hrs by CLSI-protocol based broth microdilution method
[3] = tested on: Staphylococcus epidermidis; test: Antibacterial activity against methicillin-sensitive Staphylococcus epidermidis after 18 to 20 hrs by CLSI-protocol based broth microdilution method
[4] = tested on: Staphylococcus epidermidis; test: Antibacterial activity against methicillin-resistant Staphylococcus epidermidis after 18 to 20 hrs by CLSI-protocol based broth microdilution method
Streptococcus pneumoniae = test: Antibacterial activity against penicillin-resistant Streptococcus pneumoniae after 18 to 20 hrs by CLSI-protocol based broth microdilution method
Streptococcus pyogenes = test: Antibacterial activity against Streptococcus pyogenes after 18 to 20 hrs by CLSI-protocol based broth microdilution method
[5] = Staphylococcus aureus, read-out: MIC
[6] = Streptococcus pyogenes, read-out: MIC

Row | SMILES | MIC (Staphylococcus aureus [1]; [5]) [µg/mL] | MIC (Staphylococcus aureus [2]) | MIC [3] | MIC [4] | MIC (Streptococcus pneumoniae) | MIC (Streptococcus pyogenes; [6]) [µg/mL] | MIC (Staphylococcus aureus [1]) | MIC (Streptococcus pyogenes)
1 | C[C@@H]1CN2c3c(cc4c(N5C(=O)OCC56CC6)noc4c3F)CC3(C(=O)NC(=O)NC3=O)[C@H]2[C@H](C)O1 (racemic) | 1 (≈ 2 µM) | 1 to 4 µg/mL (≈ 2 to 8.01 µM) | 1 to 2 µg/mL (≈ 2 to 4 µM) | 0.5 to 2 µg/mL (≈ 1 to 4 µM) | 2 µg/mL (≈ 4 µM) | 1 to 2 (≈ 2 to 4 µM) |  | 
2 | C[C@@H]1CN2c3c(cc4c(N5C(=O)OC[C@@H]5C)noc4c3C#N)CC3(C(=O)NC(=O)NC3=O)[C@H]2[C@H](C)O1 | 4 to 8 (≈ 8.09 to 16.2 µM) | 1 to 32 µg/mL (≈ 2.02 to 64.7 µM) | 0.5 to 2 µg/mL (≈ 1.01 to 4.04 µM) | 1 to 2 µg/mL (≈ 2.02 to 4.04 µM) | 2 to 8 µg/mL (≈ 4.04 to 16.2 µM) | 4 to 8 (≈ 8.09 to 16.2 µM) |  | 
3 | C[C@@H]1CN2c3c(cc4c(N5C(=O)S[C@@H]6CCCC[C@@H]65)noc4c3F)CC3(C(=O)NC(=O)NC3=O)[C@H]2[C@H](C)O1 | 0.5 to 1 (≈ 0.92 to 1.84 µM) | 0.5 to 2 µg/mL (≈ 0.92 to 3.68 µM) | 0.25 to 0.5 µg/mL (≈ 0.46 to 0.92 µM) | 0.125 to 0.5 µg/mL (≈ 0.23 to 0.92 µM) | < 0.03 µg/mL |  |  | 
4 | C[C@@H]1CN2c3c(cc4c(N5C[C@H](CF)SC5=O)noc4c3F)CC3(C(=O)NC(=O)NC3=O)[C@H]2[C@H](C)O1 | 0.06 to 0.125 (≈ 0.115 to 0.24 µM) |  | < 0.03 µg/mL |  | 0.06 to 0.25 µg/mL (≈ 0.115 to 0.479 µM) |  |  | 
5 | C[C@@H]1CN2c3c(cc4c(N5CC6(CCCC6)OC5=O)noc4c3F)CC3(C(=O)NC(=O)NC3=O)[C@H]2[C@H](C)O1 | 0.125 to 0.25 (≈ 0.237 to 0.474 µM) | 0.06 to 1 µg/mL (≈ 0.114 to 1.9 µM) | 0.06 to 0.25 µg/mL (≈ 0.114 to 0.474 µM) | 0.03 to 0.25 µg/mL (≈ 0.0569 to 0.474 µM) | 0.25 to 1 µg/mL (≈ 0.474 to 1.9 µM) | 0.25 to 0.5 (≈ 0.474 to 0.948 µM) |  | 
6 | C[C@@H]1CN2c3c(cc4c(-n5cncn5)ncnc4c3F)CC3(C(=O)NC(=O)NC3=O)[C@H]2[C@H](C)O1 (racemic) |  | inactive | inactive | inactive | inactive |  | inactive | inactive
7 | C[C@@H]1CN2c3c(cc4c(N5C[C@H](COC(F)(F)F)SC5=O)noc4c3F)CC3(C(=O)NC(=O)NC3=O)[C@H]2[C@H](C)O1 | 0.06 to 1 (≈ 0.102 to 1.7 µM) |  |  |  | 0.125 to 0.5 µg/mL (≈ 0.213 to 0.851 µM) | 0.125 to 0.25 (≈ 0.213 to 0.426 µM) |  | 
8 | C[C@@H]1CN2c3c(cc4c(N5C(=O)OC[C@@H]5C)noc4c3F)CC3(C(=O)N(C)C(=O)N(C)C3=O)[C@H]2[C@H](C)O1 |  | inactive | inactive | inactive | inactive |  | inactive | inactive
9 | CC[C@@H]1CSC(=O)N1c1noc2c(F)c3c(cc12)CC1(C(=O)NC(=O)NC1=O)[C@H]1[C@H](C)O[C@H](C)CN31 | 0.5 to 1 (≈ 0.966 to 1.93 µM) | 0.5 to 2 µg/mL (≈ 0.966 to 3.86 µM) | 1 µg/mL (≈ 1.93 µM) | 0.25 to 2 µg/mL (≈ 0.483 to 3.86 µM) | 2 µg/mL (≈ 3.86 µM) | 4 (≈ 7.73 µM) |  | 
10 | Cc1ncnc2c(F)c3c(cc12)CC1(C(=O)NC(=O)NC1=O)[C@H]1[C@H](C)O[C@H](C)CN31 (racemic) |  | inactive | inactive | inactive | inactive |  | inactive | inactive
11 | C[C@@H]1CN2c3c(cc4c(N5CC6(COC6)OC5=O)noc4c3F)CC3(C(=O)NC(=O)NC3=O)[C@H]2[C@H](C)O1 | 0.125 to 0.25 (≈ 0.243 to 0.485 µM) | 0.03 to 1 µg/mL (≈ 0.0582 to 1.94 µM) | 0.03 to 0.125 µg/mL (≈ 0.0582 to 0.243 µM) | 0.03 to 0.25 µg/mL (≈ 0.0582 to 0.485 µM) | 0.125 to 0.5 µg/mL (≈ 0.243 to 0.97 µM) | 0.125 to 0.25 (≈ 0.243 to 0.485 µM) |  | 
12 | C[C@@H]1CN2c3c(cc4c(N5CCOCC5=O)ncnc4c3F)CC3(C(=O)NC(=O)NC3=O)[C@H]2[C@H](C)O1 (racemic) |  | inactive | inactive | inactive | inactive |  | inactive | inactive
13 | C[C@@H]1CN2c3c(cc4c(N5C(=O)OC[C@@H]5C)noc4c3F)CC3(C(=O)NS(=O)(=O)NC3=O)[C@H]2[C@H](C)O1 |  | inactive | inactive | inactive | inactive |  | inactive | inactive
14 | C[C@@H]1CN2c3c(cc4c(N5C(=O)S[C@@H]6CCC[C@@H]65)noc4c3F)CC3(C(=O)NC(=O)NC3=O)[C@H]2[C@H](C)O1 |  |  | < 0.03 µg/mL |  | < 0.03 µg/mL | < 0.03 |  | 
15 | C[C@@H]1CN2c3c(cc4c(N5C(=O)SC[C@H]5C)noc4c3F)CC3(C(=O)NC(=O)NC3=O)[C@H]2[C@H](C)O1 | 0.25 to 0.5 (≈ 0.497 to 0.993 µM) | 0.03 to 0.5 µg/mL (≈ 0.0596 to 0.993 µM) | 0.03 to 0.125 µg/mL (≈ 0.0596 to 0.248 µM) | 0.03 to 0.125 µg/mL (≈ 0.0596 to 0.248 µM) | 0.25 to 1 µg/mL (≈ 0.497 to 1.99 µM) | 0.125 to 0.25 (≈ 0.248 to 0.497 µM) |  | 
16 | C[C@@H]1CN2c3c(cc4c(N5CCOC5=S)noc4c3F)CC3(C(=O)NC(=O)NC3=O)[C@H]2[C@H](C)O1 (racemic) | 0.5 to 1 (≈ 1.02 to 2.04 µM) | 1 to 2 µg/mL (≈ 2.04 to 4.09 µM) | 0.5 to 2 µg/mL (≈ 1.02 to 4.09 µM) | 1 µg/mL (≈ 2.04 µM) | 1 to 2 µg/mL (≈ 2.04 to 4.09 µM) | 2 (≈ 4.09 µM) |  | 
17 | C[C@@H]1CN2c3c(cc4c(N5CC6(CC6)OC5=O)noc4c3F)CC3(C(=O)NC(=O)NC3=O)[C@H]2[C@H](C)O1 (racemic) |  | 0.03 to 0.125 µg/mL (≈ 0.0601 to 0.25 µM) | ≤ 0.03 µg/mL | ≤ 0.03 µg/mL | ≤ 0.03 µg/mL | ≤ 0.03 | <0.03 µg/mL | 
18 | C[C@@H]1CN(c2noc3c(C#N)c4c(cc23)CC2(C(=O)NC(=O)NC2=O)[C@H]2[C@H](C)O[C@H](C)CN42)C(=O)O1 | 2 to 8 (≈ 4.04 to 16.2 µM) | 0.25 to 8 µg/mL (≈ 0.506 to 16.2 µM) | 1 to 2 µg/mL (≈ 2.02 to 4.04 µM) | 2 µg/mL (≈ 4.04 µM) | 4 to 8 µg/mL (≈ 8.09 to 16.2 µM) | 4 to 8 (≈ 8.09 to 16.2 µM) |  | 

Reference: ChEMBL document CHEMBL4316588, “Design, Synthesis, and Biological Evaluation of Novel DNA Gyrase-Inhibiting Spiropyrimidinetriones as Potent Antibiotics for Treatment of Infections Caused by Multidrug-Resistant Gram-Positive Bacteria” (J Med Chem, 2019)
